Literature values as cited in US20120121615A1, “ALANINYL MAYTANSINOL ANTIBODY CONJUGATES” (priority 2010, published 2012).

COc1cc2cc(c1Cl)N(C)C(=O)C[C@H](OC(=O)[C@H](C)N(C)C(C)=O)[C@]1(C)O[C@H]1[C@H](C)[C@@H]1C[C@@](O)(NC(=O)O1)[C@H](OC)/C=C/C=C(\C)C2 [maytansine]
dose-limiting toxicity (DLT) (2.0 mg/m^2 every 3 weeks, single dose or 3 consecutive days): gastrointestinal, consisting of nausea, vomiting, and diarrhea | activity in the clinic (at doses that could be safely delivered): modest
